Reference: US9745275B2, “Pain-related compound and medical composition” (KYOTO UNIVERSITY, priority 2013, dated 2017)

Key:
Assay type in all cases: in vivo, mouse
[1] = system: carrageenan-induced inflammatory pain model mice; experiment: von Frey test, mechanical allodynia in carrageenan-induced inflammatory pain model mice; settings: for threshold of withdrawal reflex behavior to mechanical stimulation (FIG. 3A, FIG. 5A): intrathecal, given 6 h after carrageenan, examined over three hours (compound 2: 0.1, 1 or 10 pmol)
Method: After subcutaneous plantar administration of carrageenan, acute inflammation develops over several hours, which causes a phenomenon of hypersensitivity to mechanical stimulation and thermal stimulation. A therapeutic agent containing the compound 1 as an active ingredient was administered to each of model mice of this carrageenan-induced inflammatory pain, and pain was evaluated.
More specifically, at seven hours after carrageenan was subcutaneously administered to a hind limb sole of each mouse (male, C57BL/6J, 6 to 8 weeks old), the compound 1 was administered orally, and at one hour after the administration of the compound 1, therapeutic effects thereof with respect to mechanical allodynia were determined. Specific conditions are as follows.
Mouse: C57BL/6J, male, 8 weeks old, n =4 (each foot, n=8) Induction of pain: 25 μL of physiological saline solution containing 2% of λ-carrageenan was injected subcutaneously to hind limb soles, so that pain was induced. […]
Evaluation of pain: Evaluation was performed by von Frey test. More specifically, a hind limb sole of the mouse was mechanically stimulated with tips of von-Frey filaments having a variety of thicknesses, and a load of stimulation at which the mouse initiated a withdrawal behavior was determined. […]
(§1) Before and after carrageenan (2%, 25 μl) was subcutaneously administered to a one-side hind limb sole of each mouse (male, C57BL/6J, 6 to 8 weeks old), mechanical stimulation or thermal stimulation was applied, and threshold (mechanical stimulation) and latency (thermal stimulation) of a withdrawal reflex behavior of the hind limb were measured. […]
as §1

[2] = system: carrageenan-induced inflammatory pain model mice; experiment: latency of withdrawal reflex to thermal stimulation (thermal hyperalgesia) in carrageenan-induced inflammatory pain model mice; settings: given 6 h after carrageenan; for suppression of thermal hyperalgesia: intrathecal, examined over three hours (compound 2: 0.1, 1 or 10 pmol)
Method: Before and after carrageenan (2%, 25 μl) was subcutaneously administered to a one-side hind limb sole of each mouse (male, C57BL/6J, ([…]), thermal stimulation was applied, and latency of a withdrawal reflex behavior of the hind limb was measured. The appearance of the phenomenon of thermal hyperalgesia due to carrageenan was checked over six hours after the administration, and thereafter, the compound 1 or a solvent used for dissolution (veh.) was administered orally (1 pmol or 10 pmol per 1 g of the mouse body). Effects were examined over two hours thereafter. The results are illustrated in FIG. 2.
Before and after carrageenan (2%, 25 μl) was subcutaneously administered to a one-side hind limb sole of each mouse (male, C57BL/6J, 6 to 8 weeks old), mechanical stimulation or thermal stimulation was applied, and threshold (mechanical stimulation) and latency (thermal stimulation) of a withdrawal reflex behavior of the hind limb were measured. The appearance of the phenomenon of mechanical allodynia or the appearance of thermal hyperalgesia due to carrageenan was checked over six hours after the administration, and thereafter, the compound 2 was administered intrathecally (0.1 pmol, 1 pmol, or 10 pmol). Effects were examined over three hours thereafter. The solution of the compound 2 was prepared by dissolving the compound 2 in 99% DMSO, and diluting the same with physiological saline solution (0.2% DMSO in physiological saline solution).
Before and after carrageenan (2%, 25 μl) was subcutaneously administered to a one-side hind limb sole of each mouse (male, C57BL/6J, 6 to 8 weeks old), mechanical stimulation or thermal stimulation was applied, and threshold (mechanical stimulation) and latency (thermal stimulation) of a withdrawal reflex behavior of the hind limb were measured. The appearance of the phenomenon of mechanical allodynia or the appearance of the thermal hyperalgesia due to carrageenan was checked over six hours after the administration, and thereafter, the compound 4 was administered intrathecally. Effects were examined over three hours thereafter. The solution of the compound 4 was prepared by dissolving the […] in 99% DMSO, and diluting the same with physiological saline solution (0.2% DMSO in physiological saline solution). The results are illustrated in FIG. 5.
Before and after carrageenan (2%, 25 μl) was subcutaneously administered to a one-side hind limb sole of each mouse (male, C57BL/6J, 6 to 8 weeks old), thermal stimulation was applied, and latency of a withdrawal reflex behavior of the hind limb was measured. The appearance of the phenomenon of thermal hyperalgesia due to carrageenan was checked over six hours after the administration, and thereafter, the compound 5 was administered intrathecally. Effects were examined over three hours thereafter. The solution of the compound 5 was prepared by dissolving the compound 5 in 99% DMSO, and diluting the same with physiological saline solution (0.2% DMSO in physiological saline solution). The results are illustrated in FIG. 6.
Before and after carrageenan (2%, 25 μl) was subcutaneously administered to a one-side hind limb sole of each mouse (male, C57BL/6J, 6 to 8 weeks old), thermal stimulation was applied, and latency of a withdrawal reflex behavior of the hind limb was measured. […]

[3] = system: carrageenan-induced inflammatory pain model mice; experiment: von Frey test with simultaneous administration of compound and opioid antagonist in carrageenan-induced inflammatory pain model mice; settings: intraperitoneal, compound 1 nmol/g plus opioid antagonist 20 nmol/g, 7 h after carrageenan, evaluated at 1 h and 3 h
Method: Carrageenan was subcutaneously injected to a hind limb sole of each mouse, and seven hours later, the compound 1 and an opioid antagonist were simultaneously administered intraperitoneally. At one hour after the administration and at three hours after the administration, therapeutic effects with respect to mechanical allodynia were evaluated. Specific conditions were as follows.
Mouse: C57B116J, male, 8 weeks old
Induction of pain: Pain was induced by subcutaneously injecting 20 μL of physiological saline solution containing 2% λ-carrageenan to a hind limb sole.
Administration of therapeutic agent: 1% Tween80 (trademark) physiological saline solution containing 2% DMSO in which the compound 1 and an opioid antagonist described below were dissolved was administered intraperitoneally, in an amount of 0.01 mL per 1 g of the body weight (about 0.2 mL of the solution was administered per one mouse). The compound 1 was prepared so as to be 1 nmol per 1 g of the body weight of the mouse. The opioid antagonist was prepared so as to be 20 nmol per 1g of the body weight of the mouse.
Opioid antagonist MNTX: Methylnaltrexone bromide Antagonist selective to a […]. Unable to pass through the blood-brain barrier.
Opioid antagonist NAL-M: Naloxone methioclide Antagonist not selective to an opioid receptor. Unable to pass through the blood-brain barrier. […]

[4] = system: complete Freund's adjuvant-induced inflammatory pain model mice; experiment: threshold of withdrawal reflex to mechanical stimulation in complete Freund's adjuvant-induced inflammatory pain model mice; settings: intrathecal, three days after CFA, examined over three hours
Method: Subcutaneous plantar administration of complete Freund's adjuvant (CFA) caused prolonged inflammation, which was more persistent than the inflammation caused in the carrageenan models, and this caused phenomena of hypersensitivity to mechanical stimulation and thermal stimulation. Using these CFA model mice, pain therapy effects of the compound 3 were evaluated. Before and after CFA (25 μl) was subcutaneously administered to a one-side hind limb sole of each mouse (male, C57BL/6J, 6 to 8 weeks old), mechanical stimulation was applied, and threshold of a withdrawal reflex behavior of the hind limb was measured. The appearance of the phenomenon of mechanical allodynia due to CFA was checked three days after the administration, and the compound 3 was administered intrathecally. Effects were examined over three hours thereafter. The solution of the compound 3 was prepared by dissolving the compound 3 in 99% DMSO, and diluting the same with physiological saline solution (0.2% DMSO in physiological saline solution). The results are illustrated in FIG. 4.

With `CCN1/C(=C/C(C)=O)Sc2ccc(F)cc21` [compound 1, (1Z)-1-(3-ethyl-5-fluoro-2(3H)-benzothiazolylidene)-2-propanone] the “therapeutic effect on mechanical allodynia (threshold load of withdrawal behavior, von Frey filaments), FIG. 1” value ([1]; oral, 1 nmol per 1 g body weight, 7 h after carrageenan, evaluated 1 h after administration, C57BL/6J male mice) was “significantly reduced”, the “therapeutic effect on thermal hyperalgesia (latency of withdrawal reflex to thermal stimulation), FIG. 2” value ([2]; oral, 1 pmol or 10 pmol per 1 g of mouse body, examined over two hours) was “significantly reduced” and the “analgesic action on mechanical allodynia with simultaneous opioid antagonist (MNTX or NAL-M), FIG. 8” value [3] was “hindered by a peripheral opioid antagonist”.
With `CCN1/C(=C/C(C)=O)Sc2ccc(OC)cc21` [compound 2] the “threshold of withdrawal reflex behavior to mechanical stimulation (FIG. 3A, FIG. 5A)” value [1] was “significantly reduced” and the “suppression of thermal hyperalgesia” value [2] was “significantly reduced”.
For `CCN1/C(=C/C(C)=O)Sc2cc(OC)ccc21` [compound 3, (1Z)-1-(3-ethyl-6-methoxy-2(3H)-benzothiazoylidene)-2-propanone], the “threshold of withdrawal reflex behavior to mechanical stimulation, FIG. 4” value [4] was “significantly suppressed”.
`CCN1/C(=C/C(C)=O)Sc2c(OC)cccc21` [compound 4] was tested, and the “threshold of withdrawal reflex behavior to mechanical stimulation (FIG. 3A, FIG. 5A)” value [1] was “significantly suppressed” and the “suppression of thermal hyperalgesia” value [2] was “significantly suppressed”.
With `CCN1/C(=C/C(C)=O)Sc2ccc(Br)cc21` [compound 5, (1Z)-1-(5-bromo-3-ethyl-2(3H)-benzothiazoylidene)-2-propanone] the “suppression of thermal hyperalgesia” value [2] was “significantly suppressed”.
In the case of `CCN1/C(=C/C(C)=O)Sc2ccc(Cl)cc21` [compound 6, (1Z)-1-(5-chloro-3-ethyl-2(3H)-benzothiazoylidene)propan-2-one], the “suppression of thermal hyperalgesia” value [2] is reported as “significantly suppressed”.
